Like-named read-outs stand apart in the source and are kept apart here.
What was measured:
UGT1A6 [1] = target: T1, UGT1A6 (Homo sapiens, UniProt P19224); settings: 10 μM, pH 7.4
T1 sequence (P19224 27-532): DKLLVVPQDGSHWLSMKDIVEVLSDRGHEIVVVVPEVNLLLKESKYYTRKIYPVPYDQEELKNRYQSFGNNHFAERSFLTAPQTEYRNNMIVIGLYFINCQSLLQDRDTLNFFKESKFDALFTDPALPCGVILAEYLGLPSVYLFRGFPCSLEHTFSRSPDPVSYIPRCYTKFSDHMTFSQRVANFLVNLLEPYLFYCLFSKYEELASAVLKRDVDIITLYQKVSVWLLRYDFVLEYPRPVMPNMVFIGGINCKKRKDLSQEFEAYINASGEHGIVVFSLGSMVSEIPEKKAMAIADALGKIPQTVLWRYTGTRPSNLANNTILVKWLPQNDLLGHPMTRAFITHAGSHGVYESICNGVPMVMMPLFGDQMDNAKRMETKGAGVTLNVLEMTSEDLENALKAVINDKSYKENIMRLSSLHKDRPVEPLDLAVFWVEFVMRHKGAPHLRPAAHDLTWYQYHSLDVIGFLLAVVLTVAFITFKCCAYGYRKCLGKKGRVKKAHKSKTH

UGT1A7 = target: T2, UGT1A7 (Homo sapiens, UniProt Q9HAW7); settings: 10 μM, pH 7.4
T2 sequence (Q9HAW7 26-530): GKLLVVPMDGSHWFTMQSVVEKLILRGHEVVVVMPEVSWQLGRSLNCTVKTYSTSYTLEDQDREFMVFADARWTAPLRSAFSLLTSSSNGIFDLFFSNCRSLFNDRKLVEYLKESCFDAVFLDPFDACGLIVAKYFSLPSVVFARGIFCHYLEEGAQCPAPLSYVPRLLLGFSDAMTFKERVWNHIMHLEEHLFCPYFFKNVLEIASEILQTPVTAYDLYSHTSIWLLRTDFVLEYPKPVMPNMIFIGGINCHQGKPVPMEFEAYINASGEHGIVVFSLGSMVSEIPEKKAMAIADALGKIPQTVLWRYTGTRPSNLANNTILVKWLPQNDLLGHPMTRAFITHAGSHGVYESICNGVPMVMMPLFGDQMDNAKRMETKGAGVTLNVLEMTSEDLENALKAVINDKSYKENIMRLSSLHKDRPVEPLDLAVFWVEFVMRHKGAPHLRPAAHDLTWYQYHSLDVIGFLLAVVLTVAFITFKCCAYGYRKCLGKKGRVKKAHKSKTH

UGT1A9 = target: T3, UGT1A9 (Homo sapiens, UniProt O60656); settings: pH 7.4
T3 sequence (O60656 26-530): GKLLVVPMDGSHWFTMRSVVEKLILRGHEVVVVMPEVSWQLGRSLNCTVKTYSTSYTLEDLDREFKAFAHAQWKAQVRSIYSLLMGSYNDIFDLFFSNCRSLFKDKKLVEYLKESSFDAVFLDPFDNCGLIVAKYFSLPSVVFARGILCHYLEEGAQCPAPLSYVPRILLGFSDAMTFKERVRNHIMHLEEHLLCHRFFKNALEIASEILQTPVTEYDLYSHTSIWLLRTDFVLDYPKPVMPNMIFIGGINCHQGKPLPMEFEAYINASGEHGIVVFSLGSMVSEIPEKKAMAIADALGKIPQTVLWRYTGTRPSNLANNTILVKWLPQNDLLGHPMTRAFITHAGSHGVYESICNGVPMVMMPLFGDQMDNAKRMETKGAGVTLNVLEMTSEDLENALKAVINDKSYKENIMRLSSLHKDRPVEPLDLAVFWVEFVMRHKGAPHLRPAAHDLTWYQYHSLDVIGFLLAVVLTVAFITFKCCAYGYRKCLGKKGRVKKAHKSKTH

UGT1A10 = target: T4, UGT1A10 (Homo sapiens, UniProt Q9HAW8); settings: 10 μM, pH 7.4
T4 sequence (Q9HAW8 26-530): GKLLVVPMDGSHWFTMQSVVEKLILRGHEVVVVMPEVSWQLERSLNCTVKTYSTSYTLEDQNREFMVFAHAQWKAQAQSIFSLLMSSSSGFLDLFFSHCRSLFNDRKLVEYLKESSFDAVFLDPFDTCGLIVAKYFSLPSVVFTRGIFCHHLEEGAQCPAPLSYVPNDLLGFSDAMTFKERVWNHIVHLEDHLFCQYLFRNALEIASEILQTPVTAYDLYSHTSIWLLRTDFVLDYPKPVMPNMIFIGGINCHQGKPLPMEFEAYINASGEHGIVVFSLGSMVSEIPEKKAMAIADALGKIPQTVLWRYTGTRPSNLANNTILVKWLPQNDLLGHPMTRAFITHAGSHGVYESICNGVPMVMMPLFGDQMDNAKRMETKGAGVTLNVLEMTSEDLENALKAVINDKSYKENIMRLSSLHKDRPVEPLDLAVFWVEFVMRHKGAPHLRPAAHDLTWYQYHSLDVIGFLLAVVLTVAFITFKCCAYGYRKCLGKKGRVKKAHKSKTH

[2] = cited from earlier work
UGT1A6 [3] = target: T1, UGT1A6; experiment: Glucuronidation by recombinant human UGT1A6; settings: UGT1A6, substrate 10 μM
UGT2B7 = target: T5, UGT2B7 (Homo sapiens, UniProt P16662); experiment: Glucuronidation by recombinant human UGT2B7; settings: UGT2B7, substrate 10 μM
T5 sequence (P16662 24-529): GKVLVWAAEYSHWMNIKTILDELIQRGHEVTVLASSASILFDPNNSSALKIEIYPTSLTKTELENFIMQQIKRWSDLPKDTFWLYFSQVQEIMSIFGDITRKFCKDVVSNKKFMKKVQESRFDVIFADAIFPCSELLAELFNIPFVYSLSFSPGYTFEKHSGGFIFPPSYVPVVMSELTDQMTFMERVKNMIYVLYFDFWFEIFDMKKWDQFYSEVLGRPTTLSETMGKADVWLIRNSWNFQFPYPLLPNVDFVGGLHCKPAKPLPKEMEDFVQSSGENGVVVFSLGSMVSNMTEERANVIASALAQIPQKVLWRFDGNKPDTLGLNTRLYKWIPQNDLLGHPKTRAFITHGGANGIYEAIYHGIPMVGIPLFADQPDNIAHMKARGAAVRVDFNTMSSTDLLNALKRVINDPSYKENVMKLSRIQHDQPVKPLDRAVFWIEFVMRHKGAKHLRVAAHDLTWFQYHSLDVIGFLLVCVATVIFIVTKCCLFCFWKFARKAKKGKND

[4] = system: UGT 1A1, 1A3, 1A6, 1A7, 1A8, 1A9, 1A10 and 2B7; experiment: Glucuronidation by the panel of 8 recombinant human UGT isoforms; settings: substrate 10 μM

SMILES	Hydroxyl positions glucuronidated (UGT1A6 [1])	Hydroxyl positions glucuronidated (UGT1A7)	Degree of regiospecificity (major glucuronide in bracket) (UGT1A9; 2.5 μM)	Hydroxyl positions glucuronidated (UGT1A9; 10 μM)	Hydroxyl positions glucuronidated (UGT1A10)	Glucuronide predominantly formed ([2]; human volunteers)	Predominant form in plasma ([2]; after oral intake in human)	Hydroxyl positions glucuronidated (UGT1A6 [3])	Hydroxyl positions glucuronidated (UGT2B7)	Glucuronidation and regiospecificity across the 8 UGT isoforms [4]
O=c1cc(-c2ccccc2)oc2cc(O)cc(O)c12 [5,7DHF, 5,7-dihydroxyflavone]	glucuronidated both 7-O and 5-O positions	glucuronidated 7-O position only	Dominant (7-O)	glucuronidated 7-O position only	glucuronidated both 7-O and 5-O positions	predominantly form 7-O-glucuronide	–	–	–	–
O=c1c(O)c(-c2ccc(O)cc2)oc2cc(O)cc(O)c12 [5,7,4'THFnol, 3,5,7,4’-tetrahydroxyflavone]	–	–	–	–	–	–	3-O-glucuronide of kaempferol was found to be the predominant form in plasma	glucuronidated only 7-O and 4’-O	glucuronidated only 7-O and 4’-O	5-O position was not significantly glucuronidated by any isoform

From PMC3391414 (Journal of Agricultural and Food Chemistry, 2011)
